Assay results taken from PMC4471147, “The Effect of Mutations on Drug Sensitivity and Kinase Activity of Fibroblast Growth Factor Receptors: A Combined Experimental and Theoretical Study” (eBioMedicine, 2015).
Several values for one entry are separate records, joined by “and”; a condition that tells them apart may be missing. Equal values may be shown once.

What was measured:
[1] = test system: KIT; conditions: ref Dieci et al., 2013; cited from earlier work
[2] = test system: control (vector only) NIH 3T3 cells; experiment: Cell viability assay, control NIH 3T3 cells; type: cell-based; conditions: for effect on cell viability: concentration range up to 1 μM, 72 h
Description: See also Supplemental Table S2. […] See also Supplemental Table S1. C. […] Cell viability was assessed at 72 h. […]
from 3 independent assays. […]
the CellTiter-Blue Cell Viability Assay (Promega). Cells were plated in triplicate in a 96- […]
medium with inhibitor at the indicated concentration. After 3 days with the inhibitor, 20 µl […]
(Berthold technologies). Background signal was removed by subtracting the fluorescence from cell-free wells. Results are from 3 independent assays.

[3] = molecular target: T1, FGFR1 V561M kinase domain (Homo sapiens, UniProt P11362, V561M); experiment: ADP-Glo kinase assay, FGFR1 V561M gatekeeper variant; type: biochemical; parameters: All kinase domain constructs were cloned into pOPINS (OPPF, Oxford, UK) or pJ821; purification tag (captured on HisTrap, removed with Ulp1 protease) (cleaved yes); made in house; host or cells: E. coli C41 (DE3) co-expressing lambda phosphatase and human CDC37 (phospho form: without the accessory plasmid); conditions: for change of inhibitor sensitivity by V561M: V561M compared to wild type, in vitro kinase assay
Description: The ADP-Glo (Promega) methodology was used for all kinase assays following manufacturers instructions. […] In various experiments the concentrations of these components were varied and this is stated in the text or figure legends. In order to calculate valid inhibition constants (Ki), a number of kinetic parameters needed to be ascertained, in particular, the Km of the kinases for ATP. A thorough Michaelis–Menten kinetic analysis was performed ensuring that all relevant parameters were in the linear range and that the appropriate concentrations of ATP, substrate and kinase were adhered to. All data were processed using Graphpad Prism and parameters presented in Supplemental Tables.
Fig. 1 Kinase activity and inhibition of FGFR1 variants. A. Amino acid alignment of part of the hinge region of the FGFR family and a number of other tyrosine kinases with reported gatekeeper mutations. The gatekeeper residue in each case is numbered and bordered in dark grey. The FGFR 1 to 3 tyrosine that is a cysteine in FGFR4 is highlighted in light grey. B. Histogram showing the inhibition constants (Ki) for four selected compounds upon FGFR1 kinase domain protein, wild type and the indicated mutants. The data were generated from enzyme kinetic analyses using various concentrations of inhibitors and fitting using the Morrison equation within Graphpad Prism. Each data point was repeated in duplicate and the standard error of the mean is presented on each bar. C. Left panel: comparison of the activity of FGFR1 apo (WT-apo) and phosphorylated (WT-2P) kinase domain protein produced using the ADP-Glo Assay. Each data point was produced in triplicate and the standard errors are indicated. Right panel: comparison of the enzyme efficiency (kcat/Km) of FGFR1 apo and phosphorylated protein. Parameters were generated through Michaelis–Menten kinetic experiments and analysed using Graphpad Prism software. […] The data in B–D are representative for 3–4 independent experiments. See also Supplemental Tables S1 and S2.

[4] = test system: NIH 3T3 cell line expressing FGFR3-TACC3 V555M; conditions: increasing concentrations, 72 h
Excerpt: (§1) Data were fit with a one-phase association model (for presentation purposes only) using Graphpad prism. Each data point was produced in triplicate and the standard errors are indicated. […] Parameters were generated through Michaelis–Menten kinetic experiments and analysed using Graphpad Prism software. See also Supplemental Table S2. […] The data were generated from enzyme kinetic analyses using various concentrations of inhibitors and fitting using the Morrison equation within Graphpad Prism. Each data point was repeated in duplicate and the standard error of the mean is presented on each bar. See also Supplemental Table S1. C. […] Bottom panels show morphology of NIH3T3 cells expressing the indicated constructs. […] Cell viability was assessed at 72 h. […]
(§2) Cells were seeded in triplicate at 1x10^5 cells per well in 6-well plates, fed every 2-3 days and trypsinised and counted after 7 days, using a coulter counter (Beckman). […]
(§3) The amount of viable cells following culture with kinase inhibitors was measured using the CellTiter-Blue Cell Viability Assay (Promega). […] After 3 days with the inhibitor, 20 µl of cell titer blue reagent was added for 2 hours, and fluorescence measured with excitation at 540 nm and emission at 590 nm, using a Mithras LB940 plate reader (Berthold technologies). Background signal was removed by subtracting the fluorescence from cell-free wells. […]

[5] = test system: KMS-11 cells harbouring FGFR3 Y373C, V555M; parameters: method as in Chell et al., 2013; conditions: 1 μM; ref Chell et al., 2013; cited from earlier work
[6] = test system: NIH 3T3 cells expressing FGFR3-TACC3 fusion protein; experiment: Cell viability assay, FGFR3-TACC3 NIH 3T3 cells; type: cell-based; conditions: increasing concentrations, 72 h
Excerpt: as §1, §2, §3

[7] = test system: LYN; parameters: method as in Dieci et al., 2013; conditions: ref Dieci et al., 2013; cited from earlier work
[8] = test system: SYK; parameters: method as in Dieci et al., 2013; conditions: ref Dieci et al., 2013; cited from earlier work
[9] = molecular target: vascular endothelial growth factor receptor (VEGFR); conditions: cited from earlier work
[10] = test system: FGFR; conditions: ref Dieci et al., 2013; cited from earlier work
[11] = test system: PDGFα; parameters: method as in Dieci et al., 2013; conditions: ref Dieci et al., 2013; cited from earlier work
[12] = test system: mutations of the gatekeeper residue in all FGFR receptors; parameters: method as in Tan et al., 2014; conditions: ref Tan et al., 2014; cited from earlier work
[13] = test system: NIH 3T3 cells expressing FGFR3 WT; experiment: Cell viability assay, FGFR3 WT NIH 3T3 cells; type: cell-based; conditions: increasing concentrations of inhibitor
Description: Cells were seeded in triplicate at 1x10^5 cells per well in 6-well plates, fed every 2-3 days and trypsinised and counted after 7 days, using a coulter counter (Beckman). Results are from 3 independent assays.
The amount of viable cells following culture with kinase inhibitors was measured using the CellTiter-Blue Cell Viability Assay (Promega). Cells were plated in triplicate in a 96-well plate at 2x10^3 cells/well and left to attach overnight before the addition of fresh medium with inhibitor at the indicated concentration. After 3 days with the inhibitor, 20 µl of cell titer blue reagent was added for 2 hours, and fluorescence measured with excitation at 540 nm and emission at 590 nm, using a Mithras LB940 plate reader (Berthold technologies). Background signal was removed by subtracting the fluorescence from cell-free wells. Results are from 3 independent assays.

[14] = molecular target: FGFR3 WT kinase domain (Homo sapiens, UniProt P22607); experiment: Isothermal titration calorimetry, FGFR3 WT; conditions: ITC, 20 °C
[15] = molecular target: FGFR1 Y563C kinase domain (Homo sapiens, UniProt P11362, Y563C); experiment: Isothermal titration calorimetry, FGFR1 Y563C
[16] = molecular target: T1, FGFR1 V561M kinase domain; experiment: Isothermal titration calorimetry, FGFR1 V561M
[17] = molecular target: FGFR1 WT kinase domain (Homo sapiens, UniProt P11362); experiment: Isothermal titration calorimetry, FGFR1 WT; conditions: ITC, 20 °C

In the case of `CN1CCN(c2ccc3nc(-c4c(N)c5c(F)cccc5[nH]c4=O)[nH]c3c2)CC1` [TKI258], the IC50 [1] is listed as […] and the “effect on cell viability” value [2] is listed as “very little or no effect”.
In the case of AZD4547, the “change of inhibitor sensitivity by V561M” value [3] is listed as “clear reduction of sensitivity”, the “effect on cell viability” value [4] is listed as “completely ineffective” and the effect on cells [5] is listed as “only marginally affected”. For the same compound, the “effect on cell viability” value [2] was “very little or no effect” and the “effect on cell viability” value [6] was “most effective”.
For `Cc1ccc(C(=O)Nc2ccc(CN3CCN(C)CC3)c(C(F)(F)F)c2)cc1C#Cc1cnc2cccnn12` [AP24534], the “change of inhibitor sensitivity by V561M” value [3] is given as “marginal effect on sensitivity”, the IC50 [7] is given as […] and the IC50 [8] is given as 0.2 to 0.4 nM. For the same compound, the inhibition at 1 µM ([2]; Mus musculus, NIH3T3, read-out: inhibitory effects under control condition) was greater than 60%, the IC50 [9] was 1 to 2.5 nM and the IC50 [10] was 1 to 2.5 nM. The IC50 [11] was 1 to 2.5 nM.
For `C=CC(=O)Nc1ccc(CN2C(=O)N(c3cc(OC)cc(OC)c3)Cc3cnc(Nc4ccc(N5CCN(C)CC5)cc4)nc32)cc1` [FIIN2], the “efficacy towards gatekeeper mutations” value [12] is listed as “proved effective”.
In the case of `C=CC(=O)Nc1ccc(CN(C(=O)Nc2c(Cl)c(OC)cc(OC)c2Cl)c2cc(Nc3ccc(N4CCN(C)CC4)cc3)ncn2)cc1` [FIIN3], the “efficacy towards gatekeeper mutations” value [12] is given as “proved effective”.
For `CCN(CC)CCCCNc1ncc2cc(-c3cc(OC)cc(OC)c3)c(NC(=O)NC(C)(C)C)nc2n1` [PD173074], the “effect on cell viability” value [13] was “unaffected”, the “change of inhibitor sensitivity by V561M” value [3] was “clear reduction of sensitivity” and the “reduction of potency on the gatekeeper variant” value ([3]; V561M versus WT FGFR1) was “up to 225 fold”. The “-TΔS” value [14] was -0.1 ± 0.32 kcal/mol, the “n (number of binding sites)” value [14] was 0.89 ± 0.002 and the ΔG [14] was -11.5 ± 0.25 kcal/mol. The ΔH [14] was -11.4 ± 0.07 kcal/mol, the “-TΔS” value ([15]; ITC, 20 °C) was -4.1 ± 0.14 kcal/mol and the “n (number of binding sites)” value ([15]; ITC, 20 °C) was 0.66 ± 0.002. The ΔG ([15]; ITC, 20 °C) was -10.5 ± 0.11 kcal/mol, the ΔH ([15]; ITC, 20 °C) was -6.4 ± 0.03 kcal/mol and the “ΔΔGexp (binding free energy difference, mutant − WT)” value ([15]; Y563C versus WT, from ITC, uncertainty in parentheses) was 0.97 kcal/mol. For the same compound, the “effect on cell viability” value [2] was “very little or no effect”, the “-TΔS” value ([16]; ITC, 20 °C) was -5.3 ± 0.14 kcal/mol and the “n (number of binding sites)” value ([16]; ITC, 20 °C) was 0.80 ± 0.006. The ΔG ([16]; ITC, 20 °C) was -8.7 ± 0.10 kcal/mol, the ΔH ([16]; ITC, 20 °C) was -3.4 ± 0.04 kcal/mol and the “ΔΔGexp (binding free energy difference, mutant − WT)” value ([16]; V561M versus WT, from ITC, standard deviation in parentheses) was 2.73 ± 0.18 kcal/mol and 2.73 (0.18) kcal/mol. The “-TΔS” value [17] was -3.7 ± 0.1 kcal/mol, the “n (number of binding sites)” value [17] was 0.91 ± 0.0007 and the ΔG [17] was -11.4 ± 0.09 kcal/mol. For the same compound, the ΔH [17] was -7.7 ± 0.01 kcal/mol and the “effect on cell viability” value [6] was “selectively inhibited”.
